# According to US9018006B2, “Stable Tregs and related materials and methods” (The University of Toledo, priority 2010, dated 2015):
# How the values were obtained:
# [1] = system: Naïve CD4+ Foxp3/GFP− cells; assay: Two-phase induction/expansion of iTregs, Method 1 (anti-CD3/anti-CD28 plus inhibitor, then rIL-2); format: cell-based, mouse
# iTreg cells = assay: Stability of Foxp3 expression of induced iTregs after re-stimulation with anti-CD3/anti-CD28 mAbs; format: cell-based, mouse; settings: after repeated re-stimulation with anti-CD3/anti-CD28 mAbs; nTreg cells 80%
# Procedure: FIGS. 4A-4B. Stability of Foxp3 expression and suppressor function of the two-phase induced iTreg T cells. The nTreg cells were isolated from spleen of naïve mice (left panel). Naïve mouse CD4^+Foxp3/GFP^− cells (1×10^6/ml) cultured with APCs were stimulated with anti-CD3 mAb in the presence of 5 ng/ml TGF-β, 5 μg/ml anti-IL-2 mAb (S4B6), or 100 nM CP-690,550 for 3 days. After washing, fresh medium was supplemented with 10 units/ml rIL-2 and cultured for additional 3 days (total 6 day culture). All these 4 populations were subsequently re-stimulated with anti-CD3 mAb/anti-CD28 mAb for 3 days and examined by FACscan for Foxp3 expression (FIG. 4A). Purified naive CD4^+Foxp3/GFP^− cells labeled with CFSE were used as T-effector (Teff) cells and mixed with re-stimulated nTreg cells or re-stimulated CP-690,550-induced iTreg cells. Proliferation was measured by the number of Teff cell divisions (FIG. 4B).
# Furthermore, the stability of Foxp3 expression of anti-IL-2 mAb-(S4B6) or Jak3 inhibitor (CP-690,550)-induced iTregs was compared with TGF-β-induced iTregs.
# T effector (Teff) cells = settings: Teff:Treg 1:1, after repeated re-stimulation
# transplant patients = settings: compared with OKT3 mAb; cited from earlier work
compound,measurement,setting,value
"C[C@@H]1CCN(C(=O)CC#N)C[C@@H]1N(C)c1ncnc2[nH]ccc12 [CP-690,550]",Foxp3 expression during proliferation (cell divisions),[1]; 6-day culture,maintained similar levels of Foxp3 expression
same,number of CD4+CD25+Foxp3/GFP+ cells on day 6 of culture,[1]; from initial 0.05×10^6 CD4+ Foxp3/GFP− cells,0.4×10^6 cells
same,expansion in the number of iTreg cells,"[1]; initial 3-day exposure, day 6 of culture",8 fold
same,induced iTreg cells that maintained Foxp3 expression,iTreg cells,75%
same,suppressor function of induced iTreg cells,T effector (Teff) cells,maintained very potent suppressor function
O=C(N/N=C/c1coc2ccccc2c1=O)c1cccnc1 [Stat5 inhibitor],naïve CD4+ Foxp3/GFP− cells converted into CD4+CD25+Foxp3/GFP+ iTregs,"[1]; 100 ng/ml Stat5 inhibitor first 3 days, then rIL-2 3 days, untreated controls 7%",36%
OKT3 mAb: mouse anti-human CD3 agonist mAb,adverse effects in patients,transplant patients,elicited the release of many cytokines causing flu-like symptoms
TGF-β,induced iTreg cells that maintained Foxp3 expression,iTreg cells,4.3%
